Measurements as given in the NIST ThermoML archive (doi:10.1021/je100151b).

What was measured:
[1] = mn = molality of the nth substance listed, in mol/kg; details: 101 kPa, Liquid, m1 = 0.25
[2] = refractive index (Na D-line) (dimensionless); mn = molality of the nth substance listed, in mol/kg; details: 101 kPa, Liquid, Standard Abbe refractometry, m1 = 0.25

[Cl][Fe][Cl] [ferrous chloride] + O
Details	mass density, [1] [kg/m3]	refractive index, [2]
288.15 K	998.9	1.3375
293.15 K	998.2	1.3468
298.15 K	997	1.3559
303.15 K	996	1.3661
308.15 K	995	1.3768
313.15 K	994.5	1.3874
318.15 K	993.8	1.398
